# Measurements published in patent publication US20240226318A1, “ANTIBODY DRUG CONJUGATE TARGETING NECTIN 4 AND PREPARATION METHOD THEREFOR AND USE THEREOF” (JIANGSU MABWELL HEALTH PHARMACEUTICAL R&D CO., LTD., priority 2021, published 2024).
# Assays:
# human FcγR I (CD64) [1] = molecular target: T1, human FcγR I (CD64) (Homo sapiens, UniProt P12314); experiment: BIAcore affinity for Fc receptor FcγRI; format: binding; details: pH 7.4
# Procedure: (§1) Human FcγR I (CD64), FcγR IIa (CD32a (H167)), FcγR IIb (CD32b), and FcγR IIIa (CD16a (V176)) proteins were diluted to 0.25 μg/mL with running reagent 1 (10 mM N-(2-hydroxyethyl)piperazine-N-2 sulfonic acid, 150 mM sodium chloride, 3 mM ethylene diamine tetraacetic acid, 0.005% Tween-20, with pH adjusted to 7.4), and FcRn protein was diluted to 0.25 μg/mL with running reagent 2 (2 mM sodium dihydrogen phosphate, 10 mM disodium hydrogen phosphate, 137 mM sodium chloride, 2.7 mM potassium chloride, 0.05% tween-20, with pH adjusted to 6.0) and all the diluted proteins were sequentially injected to the experimental channels with His capture chips (FC2) at a flow rate of […] for about 40 RU. The capture of the ligands was not required for the reference channel (FC1). Samples to be detected were diluted with corresponding running reagents, and then were injected into the experimental channels and the reference channel at a flow rate of 30 μL/min. Association and dissociation was monitored for certain time periods. The Biocore 8K analysis software was used to calculate KD values for each antibody. The reference channel (FC1) was used for background subtraction.
# MDA-MB-468 cells = experiment: In vivo efficacy, breast cancer animal model MDA-MB-468 (Group 4 Example 1); parameters: species or system Nude mice (BALB/cJGpt-Foxn1nu/Gpt); details: MDA-MB-468 model; for TV(D0): D0 baseline; for PR (D21), partial tumor regression: 8 animals per group
# Description: (§2) MIDA-MB-468 cells, i.e. human breast carcinoma cells (purchased from ATCC), NCI-H322 cells, i.e. lung cancer cells (purchased from ATCC), and T24/nectin-4, i.e. bladder cancer cells (available from the cell bank of the Chinese Academy of Science) were utilized respectively to inoculate Nude mice (BALB/cJGpt-Foxn1nu/Gpt, 4-5 weeks old) for establishing mouse models.
# (§3) The antibody-drug conjugate 3d and the control drug PADCVE (Enfortumab Vedotin, purchased from Seattle Gentics) were grouped and studied (as shown in Table 9 below). The mice were intravenously injected (IV) in a volume of 10 mL/kg, respectively; and the mice of the vehicle group were intravenously injected the same volume of vehicle (physiological saline). Tumor volumes were measured 2 times per week, and the mice were weighed and the data was recorded.
# (§4) When the experiment was finished, the experimental endpoint was reached, or if the tumor volume reached 1500 mm^3, the animals were sacrificed under CO2 anesthesia and the tumors were dissected and photographed.
# (§5) The method for evaluating in vivo efficacy was the same as described in Section 3.3 in the Group 3 of Examples.
# A mouse model was established using MDA-MB-468 cells and ADCs 3d and PADCVE were grouped and studied, as described in sections 4.1 and 4.2 in the present Group 4 of Examples.
# [2] = cited from earlier work
# [3] = molecular target: T2, recombinant extra-cellular domain of human Nectin-4 protein (Homo sapiens, UniProt Q96NY8); experiment: BIAcore affinity for the antigen; format: binding; details: human Nectin-4, pH 7.4
# T2 construct: recombinant extra-cellular domain of human Nectin-4 protein; purchased Novoprotein Scientific Inc
# T2 sequence (Q96NY8 32-349 limits assumed): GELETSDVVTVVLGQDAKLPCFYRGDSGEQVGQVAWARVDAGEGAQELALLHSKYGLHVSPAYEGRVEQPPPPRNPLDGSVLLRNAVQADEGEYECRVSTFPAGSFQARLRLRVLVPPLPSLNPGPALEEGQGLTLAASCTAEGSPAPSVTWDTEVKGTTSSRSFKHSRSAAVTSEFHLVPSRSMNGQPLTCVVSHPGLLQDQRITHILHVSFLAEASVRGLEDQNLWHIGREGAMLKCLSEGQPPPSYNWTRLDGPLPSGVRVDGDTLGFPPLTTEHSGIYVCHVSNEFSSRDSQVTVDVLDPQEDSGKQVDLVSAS
# Procedure: Human Nectin-4 protein (purchased from Novoprotein Scientific Inc.) was subjected to buffer exchange with a desalting column using running reagent 1 (10 mM N-(2-hydroxyethyl)piperazine-N-2 sulfonic acid, 150 mM sodium chloride, 3 mM ethylene diamine tetraacetic acid, 0.005% Tween-20, with pH adjusted to 7.4). Samples to be detected were diluted to 5 μg/mL with the running reagent 1, and sequentially injected to the experimental channels with His capture chips at a flow rate of […] for about 400 RU. The capture of the ligand was not required for the reference channel. The human Nectin-4 protein was diluted to 50, 25, 12.5, 6.25, 3.125, 1.563, 0.781, 0.391, and 0 nM with the corresponding running reagent, and then the diluted human Nectin-4 protein was injected into the experimental channels and the reference channel at a flow rate of 30 μL/min. The association and dissociation time were 120 sec and 300 sec, respectively. The Biocore 8K analysis software was used to calculate KD values for each antibody. The reference channel was used for background subtraction.
# T24/nectin-4 cells = experiment: In vivo efficacy, bladder cancer animal model T24/nectin-4; parameters: species or system Nude mice (BALB/cJGpt-Foxn1nu/Gpt); details: T24/nectin-4 model; for Average weight (g) at the beginning / Average weight (g) at the end: mouse body weight
# Description: as §2, §3, §4, §5
# A mouse model was established using T24/nectin-4 cells and ADCs 3d and PADCVE were grouped and studied, as described in sections 4.1 and 4.2 in the present Group 4 of Examples.
# [4] = molecular target: T3, human FcγR IIb (human CD32b) (Homo sapiens, UniProt P31994); experiment: BIAcore affinity for Fc receptor FcγRIIb; format: binding; details: pH 7.4
# T3 sequence (P31994 43-310): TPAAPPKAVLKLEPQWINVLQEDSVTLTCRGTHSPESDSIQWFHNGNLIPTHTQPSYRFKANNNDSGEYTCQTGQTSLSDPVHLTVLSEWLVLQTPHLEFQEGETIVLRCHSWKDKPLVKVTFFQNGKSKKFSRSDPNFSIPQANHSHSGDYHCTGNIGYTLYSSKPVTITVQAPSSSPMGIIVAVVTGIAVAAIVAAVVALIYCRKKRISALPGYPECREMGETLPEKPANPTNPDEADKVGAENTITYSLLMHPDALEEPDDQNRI
# Procedure: as §1
# PC-3-Nectin4(2-4) cells = experiment: Internalization activity, flow cytometry; format: cell-based
# Procedure: Experiment method was as follows: the target cells at the logarithmic stage of growth were harvested by centrifugation, adjusted to a density of 5×10^5 cells/mL in complete medium (F-12K medium containing 10% FBS and 250 μg/ml G418). 1 mL of the cell suspension obtained was pipetted into EP tubes, i.e., 5×10^5 cells in each, which were then centrifuged. The supernatant was discarded and the cells were washed twice with PBS. […] (as the control group) and 37° C. (as the experiment groups) respectively. After incubation for 2 h, a fluorescently labeled secondary antibody, goat anti human IgG Fc-FITC (purchased from Sigma) was added and incubated for 1 h at 4° C. After the incubation, the fluorescence intensity was measured with a flow cytometer, and the internalization efficiency of each of the samples was calculated by the formula as follows: percent internalization at the time point tx=(1−the fluorescence intensity of the sample at 37° C./the fluorescence intensity of the sample at 4° C.)×100% (tx is the incubation time period x of the sample with the cells).
# FcRn [5] = molecular target: T4, FcRn (Homo sapiens, UniProt P55899); experiment: BIAcore affinity for Fc receptor FcRn; format: binding; details: pH 6.0
# Procedure: as §1
# NCI-H322 cells = experiment: In vivo efficacy, lung cancer animal model NCI-H322; parameters: species or system Nude mice (BALB/cJGpt-Foxn1nu/Gpt)
# Description: as §2, §3, §4, §5
# A mouse model was established using NCI-H322 cells and ADCs 3d and PADCVE were grouped and studied, as described in sections 4.1 and 4.2 in the present Group 4 of Examples.
# [6] = molecular target: T5, human FcγR IIa (human CD32a (H167)) (Homo sapiens, UniProt P12318); experiment: BIAcore affinity for Fc receptor FcγRIIa; format: binding; details: pH 7.4
# T5 sequence (P12318 36-218 limits assumed): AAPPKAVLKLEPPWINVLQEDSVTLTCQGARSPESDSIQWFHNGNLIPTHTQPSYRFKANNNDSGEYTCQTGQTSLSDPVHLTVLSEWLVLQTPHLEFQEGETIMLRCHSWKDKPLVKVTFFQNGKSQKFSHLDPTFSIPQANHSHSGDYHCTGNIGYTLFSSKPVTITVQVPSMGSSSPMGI
# Procedure: as §1
# [7] = molecular target: human FcγR IIa (human CD32a (H167)) (human) (UniProt P12318); experiment: BIAcore (SPR), Fc receptor captured on His capture chip, pH 7.4, ADC injected
# human FcγR I (CD64) [8] = molecular target: T1, human FcγR I (CD64); experiment: as above
# [9] = molecular target: human FcγR IIb (human CD32b) (human) (UniProt P31994); experiment: as above
# [10] = molecular target: Nectin-4 on stably transfected PC-3-Nectin4(2-4) cells (UniProt Q96NY8); experiment: flow cytometry on PC-3-Nectin4(2-4) cells, 2 h at 4° C., anti-human IgG Fc-FITC
# [11] = molecular target: recombinant extra-cellular domain of human Nectin-4 protein (human) (UniProt Q96NY8); experiment: BIAcore (SPR), ADC captured on chip, human Nectin-4 protein injected at 0.391-50 nM
# FcRn [12] = molecular target: T4, FcRn; experiment: BIAcore (SPR), FcRn captured on His capture chip, pH 6.0, ADC injected
# [13] = molecular target: Nectin-4 on stably transfected PC-3-Nectin4(2-4) cells (UniProt Q96NY8); experiment: cell-based or functional assay
substance,measurement,setting,value
PADCEV,Kd,human FcγR I (CD64) [1],12.3 nM
same,TV(D0),MDA-MB-468 cells; 3 mg/kg IV at D0,133.1 mm^3
same,T/C (%) (D21),MDA-MB-468 cells; 3 mg/kg IV at D0,63%
same,TGI % (D21),MDA-MB-468 cells; 3 mg/kg IV at D0,37%
same,TV(D21),MDA-MB-468 cells; 3 mg/kg IV at D0,516.4 mm^3
same,"PR (D21), partial tumor regression",MDA-MB-468 cells; 3 mg/kg IV at D0,0
same,TV(D0),MDA-MB-468 cells; 10 mg/kg IV at D0,139.5 mm^3
same,T/C (%) (D21),MDA-MB-468 cells; 10 mg/kg IV at D0,28%
same,TGI % (D21),MDA-MB-468 cells; 10 mg/kg IV at D0,72%
same,TV(D21),MDA-MB-468 cells; 10 mg/kg IV at D0,309.5 mm^3
same,"PR (D21), partial tumor regression",MDA-MB-468 cells; 10 mg/kg IV at D0,0
same,adverse reactions accompanying treatment,[2]; clinical studies,"fever, skin itching, peripheral neuropathy, dry eyes, neutrocytopenia"
same,medium overall survival,[2]; patients receiving chemotherapy and PD-1/PD-L1 inhibitor regimens,12.9 months
same,overall survival longer than chemotherapy control group,[2]; versus patients receiving chemotherapy in the control group,3.9 months
same,Kd,[3],4.87 nM
same,ka,[3],1.05e+06 M⁻¹ s⁻¹
same,kd,[3],0.00512 s⁻¹
same,Average tumor weight (g) (D22),T24/nectin-4 cells; 3 mg/kg IV at D0,0.23 g
same,TGI (%) (D22),T24/nectin-4 cells; 3 mg/kg IV at D0,90.7%
same,Average weight (g) at the beginning,T24/nectin-4 cells; 3 mg/kg IV at D0,22.0 g
same,Average weight (g) at the end,T24/nectin-4 cells; 3 mg/kg IV at D0,23.0 g
same,Average tumor weight (g) (D22),T24/nectin-4 cells; 10 mg/kg IV at D0,0.09 g
same,TGI (%) (D22),T24/nectin-4 cells; 10 mg/kg IV at D0,96.3%
same,Average weight (g) at the beginning,T24/nectin-4 cells; 10 mg/kg IV at D0,22.0 g
same,Average weight (g) at the end,T24/nectin-4 cells; 10 mg/kg IV at D0,23.3 g
same,Kd,[4],16300 nM
same,Average fluorescence intensity 4° C.,"PC-3-Nectin4(2-4) cells; 2 h at 4° C. (control group), average",83966
same,Median fluorescence intensity 4° C.,"PC-3-Nectin4(2-4) cells; 2 h at 4° C. (control group), median",78925
same,Average fluorescence intensity 37° C.,"PC-3-Nectin4(2-4) cells; 2 h at 37° C., average",33129
same,Median fluorescence intensity 37° C.,"PC-3-Nectin4(2-4) cells; 2 h at 37° C., median",25038
same,Kd,FcRn [5],513 nM
same,TV(D0),"NCI-H322 cells; 3 mg/kg IV at D0, D0 baseline",125.1 mm^3
same,T/C (%) (D21),"NCI-H322 cells; 3 mg/kg IV at D0, D21",36%
same,TGI % (D21),"NCI-H322 cells; 3 mg/kg IV at D0, D21",64%
same,TV(D21),"NCI-H322 cells; 3 mg/kg IV at D0, D21",325.9 mm^3
same,"PR (D21), partial tumor regression","NCI-H322 cells; 3 mg/kg IV at D0, D21, 8 animals per group",0
same,TV(D0),"NCI-H322 cells; 10 mg/kg IV at D0, D0 baseline",124.1 mm^3
same,T/C (%) (D21),"NCI-H322 cells; 10 mg/kg IV at D0, D21",−23%
same,TGI % (D21),"NCI-H322 cells; 10 mg/kg IV at D0, D21",123%
same,TV(D21),"NCI-H322 cells; 10 mg/kg IV at D0, D21",95.9 mm^3
same,"PR (D21), partial tumor regression","NCI-H322 cells; 10 mg/kg IV at D0, D21, 8 animals per group",7
same,Kd,[6],2770 nM
"PADCEV (Enfortumab Vedotin, purchased from Seattle Genetics) (antibody)",Kd,[7],2770 nM
same,Kd,human FcγR I (CD64) [8],12.3 nM
same,Kd,[9],16300 nM
same,fluorescence intensity at 4° C. (Average),[10],84000
same,fluorescence intensity at 4° C. (Median),[10],78900
same,Kd,[11],4.87 nM
same,Kd,FcRn [12],513 nM
same,"Fluorescence intensity at 37° C. (Average), surface antibody left after internalization",[13],33100
same,"Fluorescence intensity at 37° C. (Median), surface antibody left after internalization",[13],25000
